# Patent US8232298B2, “Inhibitors of the interaction between MDM2 and P53” (Janssen Pharmaceutica N.V., priority 2006, dated 2012)
# Like-named read-outs stand apart in the source and are kept apart here.
# Experiments:
# U87MG cells = assay: Proliferation assay (MTT) on U87MG tumour cells; assay type: cell-based; settings: Homo sapiens, U-87 MG
# Description: Cellular activity of the compounds of formula (I) was determined on U87MG tumour cells using a colorimetric assay for cell toxicity or survival (see example C.2).
# U87MG cells are human glioblastoma cells with wild type p53. In this cell line MDM2 tightly controls p53 expression.
# All compounds tested were dissolved in DMSO and further dilutions were made in culture medium. Final DMSO concentrations never exceeded 0.1% (v/v) in cell proliferation assays. Controls contained U87MG cells and DMSO without compound and blanks contained DMSO but no cells.
# U87MG cells were seeded in 96-well cell culture plates at 3000 cells/well/100 μl. 24 hours later, medium was changed and compound and/or solvent were added to a final volume of 200 μl. Following 4 days of incubation, medium was replaced by 200 μl fresh medium and cell growth was assessed using a MTT-based assay. Therefore, 25 μl of the MTT solution (0.5% MTT research grade from Serva in phosphate-buffered saline ) was added to each well and the cells were further incubated for 2 hours at 37° C. The medium was then carefully aspirated and the blue MTT-formazan product was dissolved by adding to each well 25 μl 0.1M glycin and 100 μl DMSO. The plates were shaken for another 10 min on a micro plate shaker before reading absorbance at 540 nm by a Biorad micro plate reader.
# Within an experiment, the results for each experimental condition are the mean of 3 replicate wells. For initial screening purposes, compounds were tested at a single fixed concentration of 10^−5 M. For active compounds, the experiments were repeated to establish full concentration-response curves. For each experiment, controls (containing no drug) and a blank incubation (containing no cells or drugs) were run in parallel. The blank value was subtracted from all control and sample values. For each sample, the mean value for cell growth (in absorbance units) was expressed as a percentage of the mean value for cell growth of the control. When appropriate, IC50-values (concentration of the drug, needed to reduce cell growth to 50% of the control) were computed using probit analysis for graded data (Finney, D. J., Probit Analyses, 2nd Ed. Chapter 10, Graded Responses, Cambridge University Press, Cambridge 1962). Herein the effects of test compounds are expressed as pIC50 (the negative log value of the IC50-value) (see table F-2).
# In some of the experiments the proliferation assay was adapted for and used in 384-well culture plates (see table F-2).
# p53 in A2780 cells = assay: p53 ELISA: capacity to preserve p53 in A2780 cells; assay type: cell-based; settings: treated with compound for 16 hours, in M
# Description: The capacity of the compounds to preserve p53 in A2780 cells was measured with the p53 enzyme linked immunosorbent assay. The p53 assay is a “sandwich” enzyme immunoassay employing two polyclonal antibodies. A polyclonal antibody, specific for the p53 protein, has been immobilized onto the surface of the plastic wells. Any p53 present in the sample to be assayed will bind to the capture antibody. The biotinylated detector polyclonal antibody also recognizes p53 protein, and will bind to any p53, which has been retained by the capture antibody. The detector antibody, in turn, is bond by horseradish peroxidase-conjugated streptavidin. The horseradish peroxidase catalyses the conversion of the chromogenic substrate o-phenylene diamine, the intensity of which is proportional to the amount of p53 protein bond to the plate. The colored reaction product is quantified using a spectrophotometer. Quantitation is achieved by the construction of a standard curve using known concentrations of purified recombinant HIS tagged p53 protein (see example C.1.).
# A2780 cells (ATCC) were cultivated in RPMI 1640 supplemented with 10% fetal calf serum (FCS), 2 mM L-glutamine and gentamycin at 37° C. in a humidified incubator with 5% CO2.
# A2780 cells were seeded at 20.000 cells per well in a 96 well plate, cultured for 24 hours and treated with compound for 16 hours at 37° C. in a humidified incubator. After incubation, the cells were washed once with phosphate-buffered saline and 30 μl, per well, low salt RIPA buffer (20 mM tris, pH7.0, 0.5 mM EDTA, 1% Nonidet P40, 0.5% DOC, 0.05% SDS, 1 mM PMSF, 1 μg/ml aprotinin and 0.5 μ/ml leupeptin) was added. Plates were placed on ice for 30 minutes to complete the lysis. p53 protein was detected in de lysates by using the sandwich ELISA, described below.
# High binding polystyrene EIA/RIA 96 well plates (Costar 9018) were coated with the capture antibody pAb1801 (Abeam ab28-100) at a concentration of 1 μg/ml in coating buffer (0.1 M NaHCO3 pH8.2), 50 μl per well. The antibody was allowed to adhere overnight at 4° C. Coated plates were washed once with phosphate-buffered saline (PBS)/0.05% Tween 20 and 300 μl of blocking buffer (PBS, 1% bovine serum albumins (BSA)) was added, for an incubation period of 2 hours at room temperature. Dilutions of purified recombinant HIS tagged p53 protein, ranging from 3-200 ng/ml, were made in blocking buffer and used as standards.
# Plates were washed twice with PBS/0.05% Tween 20 and blocking buffer or standards were added at 80 μl/well. To the standards, 20 μl of lysis buffer was added. The samples were added to the other wells at 20 μl lysate/well. After an overnight incubation at 4° C., plates were washed twice with PBS/0.05% Tween 20. Aliquots of 100 μl secondary polyclonal antibody p53(FL-393) (Tebubio, sc-6243) at a concentration of 1 μg/ml in blocking buffer were added to each well and allowed to adhere for 2 hours at room temperature. Plates were washed three times with PBS /0.05% Tween 20. Detection antibody anti-rabbit HRP (sc-2004, Tebubio) at 0.04 μg/ml in PBS/1% BSA was added and incubated for 1 hour at room temperature. Plates were washed three times with PBS/0.05% Tween 20 and 100 μl of substrate buffer was added (substrate buffer was prepared shortly before use by adding 1 tablet of 10 mg o-phenylene diamine (OPD) from Sigma and 125 μl 3% H2O2 to 25 ml OPD buffer: 35 mM citric acid, 66 mM Na2HPO4, pH5.6). After 5 to 10 minutes, colour reaction was stopped by adding 50 μl stop buffer (1 M H2SO4) per well. The absorbance at dual wavelengths of 490/655 nm was measured using a Biorad micro plate reader and the results were then analyzed.
# For each experiment, controls (containing no drug) and a blank incubation (containing no cells or drugs) were run in parallel. The blank value was subtracted from all control and sample values. For each sample, the value of p53 (in absorbance units) was expressed as the percentage of the value for p53 present in the control. […]
# [1] = 96 h, 96-well plates, 4 days of incubation, read-out: cell proliferation pIC50 96 well (converted)
# [2] = 384-well culture plates, read-out: cell proliferation pIC50 384 well (converted)
IC50 (U87MG cells; [1]) [µM],melting point [°C],IC50 (U87MG cells; [2]) [µM],SMILES,A2780 p53-elisa LAD (lowest dose giving at least 140% of the value for p53 present in the control) (p53 in A2780 cells)
–,–,> 10,c1cc(Nc2ccc(NCCc3c[nH]c4sccc34)cc2)ccn1 [Compound 6],1.0E−05
–,–,1.41,c1cc(Nc2ccc(Nc3ccc4[nH]ccc4c3)cc2)ccn1 [Compound 4],1.0E−06
4.47,184 to 186,–,COc1ccc2c(CCNc3ccc(Nc4ccncc4)cc3)coc2c1 [Compound 5],1.0E−05

# More lines, now with the values behind:
SMILES,IC50 (U87MG cells; [1]) [µM],melting point [°C],IC50 (U87MG cells; [2]) [µM],A2780 p53-elisa LAD (lowest dose giving at least 140% of the value for p53 present in the control) (p53 in A2780 cells)
c1cc(Nc2ccc(NCCc3cnc4n3CCCC4)cc2)ccn1 [Compound 3],7.08,256,–,3.0E−06
c1ccc2c(CCNc3ccc(Nc4ccncc4)cc3)coc2c1 [Compound 1],3.24,152 to 154,–,1.0E−05
c1cnc2[nH]cc(CCNc3ccc(Nc4ccncc4)cc3)c2c1 [Compound 2],4.37,182,–,3.0E−06
